Laboratory results reported in US6054435A, “6-O-substituted macrolides having antibacterial activity” (priority 1999, dated 2000).
Values after ≈ are worked out from the molar mass of the structure shown.

Assays:
Test in all cases: in vitro antibacterial activity (MIC), agar dilution
Format in all cases: cell-based
Candida albicans CCH 442 = conditions: organism code TT; BHI agar, 35-37° C., 20 to 24 hours; unit assumed
In short: (§1)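 Endpoint: lowest concentration with no growth, slight haze or sparsely isolated colonies at the inoculum spot, judged against a compound-free BHI control. Strains were replicator-inoculated at 1:100 (1:10 for Streptococcus and other slow growers).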

[1] = system: Enterococcus faecium ATCC 8043; conditions: organism code II; BHI agar, 35-37° C., 20 to 24 hours; unit assumed
In short: as §1

Escherichia coli DC-2 = conditions: organism code SS; BHI agar, 35-37° C., 20 to 24 hours; unit assumed
In short: as §1

Escherichia coli JUHL = conditions: organism code QQ; BHI agar, 35-37° C., 20 to 24 hours; unit assumed
In short: as §1

Escherichia coli SS = conditions: organism code RR; BHI agar, 35-37° C., 20 to 24 hours; unit assumed
In short: as §1

[2] = system: Haemophilis Influenzae DILL AMP R; conditions: organism code WW; BHI agar, 35-37° C., 20 to 24 hours; unit assumed
In short: as §1

[3] = system: Micrococcus luteus ATCC 4698; conditions: organism code PP; BHI agar, 35-37° C., 20 to 24 hours; unit assumed
In short: (§2)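 Antibacterial MIC determined by agar dilution in BHI agar with twelve successive concentrations; controls comprised compound-free plates and a same-class reference antibiotic. MIC: lowest concentration giving no growth, slight haze or sparsely isolated colonies.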

[4] = system: Micrococcus luteus ATCC 9341; conditions: organism code OO; BHI agar, 35-37° C., 20 to 24 hours; unit assumed
In short: as §2

[5] = system: Mycobacterium smegmatis ATCC 114; conditions: organism code UU; BHI agar, 35-37° C., 20 to 24 hours; unit assumed
In short: as §1

[6] = system: Nocardia Asteroides ATCC9970; conditions: organism code VV; BHI agar, 35-37° C., 20 to 24 hours; unit assumed
In short: as §1

[7] = system: Staphylococcus aureus 1775; conditions: organism code GG; BHI agar, 35-37° C., 20 to 24 hours; unit assumed
In short: as §1

[8] = system: Staphylococcus aureus A-5278; conditions: organism code CC; BHI agar, 35-37° C., 20 to 24 hours; unit assumed
In short: as §1

[9] = system: Staphylococcus aureus A5177; conditions: organism code BB; BHI agar, 35-37° C., 20 to 24 hours; unit assumed
In short: as §1

[10] = system: Staphylococcus aureus ATCC 6538P; conditions: organism code AA; BHI agar, 35-37° C., 20 to 24 hours; unit assumed
In short: as §1

[11] = system: Staphylococcus aureus CMX 553; conditions: organism code FF; BHI agar, 35-37° C., 20 to 24 hours; unit assumed
In short: as §1

[12] = system: Staphylococcus aureus CMX 642A; conditions: organism code DD; BHI agar, 35-37° C., 20 to 24 hours; unit assumed
In short: as §1

[13] = system: Staphylococcus aureus NCTC10649M; conditions: organism code EE; BHI agar, 35-37° C., 20 to 24 hours; unit assumed
In short: as §1

[14] = system: Staphylococcus epidermidis 3519; conditions: organism code HH; BHI agar, 35-37° C., 20 to 24 hours; unit assumed
In short: as §1

[15] = system: Streptococcus Pneumonia 5649; conditions: organism code ZZA; BHI agar, 35-37° C., 20 to 24 hours; unit assumed
In short: as §1

[16] = system: Streptococcus Pneumonia 5979; conditions: organism code ZZ; BHI agar, 35-37° C., 20 to 24 hours; unit assumed
In short: as §1

[17] = system: Streptococcus Pneumonia ATCC6303; conditions: organism code XX; BHI agar, 35-37° C., 20 to 24 hours; unit assumed
In short: as §1

[18] = system: Streptococcus Pneumonia GYR 1171; conditions: organism code YY; BHI agar, 35-37° C., 20 to 24 hours; unit assumed
In short: as §1

[19] = system: Streptococcus agalactiae CMX 508; conditions: organism code KK; BHI agar, 35-37° C., 20 to 24 hours; unit assumed
In short: as §1

[20] = system: Streptococcus bovis A-5169; conditions: organism code JJ; BHI agar, 35-37° C., 20 to 24 hours; unit assumed
In short: as §1

[21] = system: Streptococcus pyogenes 930; conditions: organism code MM; BHI agar, 35-37° C., 20 to 24 hours; unit assumed
In short: as §1

[22] = system: Streptococcus pyogenes EES61; conditions: organism code LL; BHI agar, 35-37° C., 20 to 24 hours; unit assumed
In short: as §1

[23] = system: Streptococcus pyogenes PIU 2548; conditions: organism code NN; BHI agar, 35-37° C., 20 to 24 hours; unit assumed
In short: as §1

SMILES | MIC (Candida albicans CCH 442) [µg/mL] | MIC [1] [µg/mL] | MIC (Escherichia coli DC-2) [µg/mL] | MIC (Escherichia coli JUHL) [µg/mL] | MIC (Escherichia coli SS) [µg/mL] | MIC [2] [µg/mL] | MIC [3] [µg/mL] | MIC [4] [µg/mL] | MIC [5] [µg/mL] | MIC [6] [µg/mL] | MIC [7] [µg/mL] | MIC [8] [µg/mL] | MIC [9] [µg/mL] | MIC [10] [µg/mL] | MIC [11] [µg/mL] | MIC [12] [µg/mL] | MIC [13] [µg/mL] | MIC [14] [µg/mL] | MIC [15] [µg/mL] | MIC [16] [µg/mL] | also measured
CC[C@H]1OC(=O)[C@H](C)C(=O)[C@H](C)[C@@H](O[C@@H]2O[C@H](C)C[C@H](N(C)C)[C@H]2O)[C@](C)(OC/C=C/c2cncc(-c3ccco3)c2)C[C@@H](C)C(=O)[C@H](C)[C@H]2NC(=O)O[C@@]21C [Example 50] | > 100 | 0.05 (≈ 0.0639 µM) | 50 (≈ 63.9 µM) | 25 (≈ 32 µM) | 0.39 (≈ 0.499 µM) | 2 (≈ 2.56 µM) | 0.1 (≈ 0.128 µM) | 0.01 (≈ 0.0128 µM) | 0.39 (≈ 0.499 µM) | 0.05 (≈ 0.0639 µM) | > 100 | > 100 | 0.02 (≈ 0.0256 µM) | 0.05 (≈ 0.0639 µM) | 0.02 (≈ 0.0256 µM) | 0.05 (≈ 0.0639 µM) | 0.1 (≈ 0.128 µM) | 0.05 (≈ 0.0639 µM) | 0.12 (≈ 0.153 µM) | 128 (≈ 164 µM) | MIC [17]: ≤ 0.004 µg/mL; MIC [18]: ≤ 0.004 µg/mL; MIC [19]: 0.01 µg/mL (≈ 0.0128 µM); MIC [20]: 0.01 µg/mL (≈ 0.0128 µM); MIC [21]: 12.5 µg/mL (≈ 16 µM); MIC [22]: 0.02 µg/mL (≈ 0.0256 µM); MIC [23]: 0.1 µg/mL (≈ 0.128 µM)
CC[C@H]1OC(=O)[C@H](C)C(=O)[C@H](C)[C@@H](O[C@@H]2O[C@H](C)C[C@H](N(C)C)[C@H]2O)[C@](C)(OC/C=C/c2ccc3ncc(Br)cc3c2)C[C@@H](C)C(=O)[C@H](C)[C@H]2NC(=O)O[C@@]21C [Example 38] | > 100 | 0.05 (≈ 0.0592 µM) | > 100 | 100 (≈ 118 µM) | 0.78 (≈ 0.923 µM) | 2 (≈ 2.37 µM) | 0.2 (≈ 0.237 µM) | 0.05 (≈ 0.0592 µM) | 0.39 (≈ 0.462 µM) | 0.05 (≈ 0.0592 µM) | 100 (≈ 118 µM) | 100 (≈ 118 µM) | 0.2 (≈ 0.237 µM) | 0.2 (≈ 0.237 µM) | 0.2 (≈ 0.237 µM) | 0.2 (≈ 0.237 µM) | 0.2 (≈ 0.237 µM) | 0.2 (≈ 0.237 µM) | 0.25 (≈ 0.296 µM) | 2 (≈ 2.37 µM) | MIC [17]: 0.03 µg/mL (≈ 0.0355 µM); MIC [18]: 0.03 µg/mL (≈ 0.0355 µM); MIC [19]: 0.02 µg/mL (≈ 0.0237 µM); MIC [20]: ≤ 0.005 µg/mL; MIC [21]: 3.1 µg/mL (≈ 3.67 µM); MIC [22]: 0.02 µg/mL (≈ 0.0237 µM); MIC [23]: 0.2 µg/mL (≈ 0.237 µM)
CC[C@H]1OC(=O)[C@H](C)C(=O)[C@H](C)[C@@H](O[C@@H]2O[C@H](C)C[C@H](N(C)C)[C@H]2O)[C@](C)(OC/C=C/c2ccc3ncc(-c4ccco4)cc3c2)C[C@@H](C)C(=O)[C@H](C)[C@H]2NC(=O)O[C@@]21C [Example 39] | > 100 | 0.1 (≈ 0.12 µM) | > 100 | > 100 | 0.78 (≈ 0.937 µM) | 4 (≈ 4.81 µM) | 0.2 (≈ 0.24 µM) | 0.02 (≈ 0.024 µM) | 0.39 (≈ 0.469 µM) | 0.1 (≈ 0.12 µM) | > 100 | > 100 | 0.2 (≈ 0.24 µM) | 0.2 (≈ 0.24 µM) | 0.2 (≈ 0.24 µM) | 0.2 (≈ 0.24 µM) | 0.2 (≈ 0.24 µM) | 0.2 (≈ 0.24 µM) | 0.25 (≈ 0.3 µM) | 2 (≈ 2.4 µM) | MIC [17]: 0.06 µg/mL (≈ 0.0721 µM); MIC [18]: 0.03 µg/mL (≈ 0.0361 µM); MIC [19]: 0.01 µg/mL (≈ 0.012 µM); MIC [20]: 0.01 µg/mL (≈ 0.012 µM); MIC [21]: 6.2 µg/mL (≈ 7.45 µM); MIC [22]: 0.01 µg/mL (≈ 0.012 µM); MIC [23]: 0.2 µg/mL (≈ 0.24 µM)
CC[C@H]1OC(=O)[C@H](C)C(=O)[C@H](C)[C@@H](O[C@@H]2O[C@H](C)C[C@H](N(C)C)[C@H]2O)[C@](C)(OCC#Cc2ccc(-c3cc4ccccc4s3)s2)C[C@@H](C)C(=O)[C@H](C)[C@H]2NC(=O)O[C@@]21C [Example 34] | > 100 | 0.2 (≈ 0.235 µM) | > 100 | > 100 | 1.56 (≈ 1.83 µM) | 16 (≈ 18.8 µM) | 0.2 (≈ 0.235 µM) | 0.02 (≈ 0.0235 µM) | 0.39 (≈ 0.458 µM) | 0.39 (≈ 0.458 µM) | 12.5 (≈ 14.7 µM) | 50 (≈ 58.7 µM) | 0.2 (≈ 0.235 µM) | 0.39 (≈ 0.458 µM) | 0.2 (≈ 0.235 µM) | 0.39 (≈ 0.458 µM) | 0.2 (≈ 0.235 µM) | 0.39 (≈ 0.458 µM) | 2 (≈ 2.35 µM) | 8 (≈ 9.4 µM) | MIC [17]: 0.25 µg/mL (≈ 0.294 µM); MIC [18]: 0.25 µg/mL (≈ 0.294 µM); MIC [19]: 0.02 µg/mL (≈ 0.0235 µM); MIC [20]: 0.02 µg/mL (≈ 0.0235 µM); MIC [21]: 1.56 µg/mL (≈ 1.83 µM); MIC [22]: 0.02 µg/mL (≈ 0.0235 µM); MIC [23]: 0.39 µg/mL (≈ 0.458 µM)
CC[C@H]1OC(=O)[C@H](C)C(=O)[C@H](C)[C@@H](O[C@@H]2O[C@H](C)C[C@H](N(C)C)[C@H]2O)[C@](C)(OCC#Cc2ccc(-c3cnc4ccccc4n3)s2)C[C@@H](C)C(=O)[C@H](C)[C@H]2NC(=O)O[C@@]21C [Example 33] | > 100 | 0.05 (≈ 0.059 µM) | > 100 | > 100 | 0.78 (≈ 0.921 µM) | 4 (≈ 4.72 µM) | 0.05 (≈ 0.059 µM) | 0.05 (≈ 0.059 µM) | 0.2 (≈ 0.236 µM) | 0.1 (≈ 0.118 µM) | 50 (≈ 59 µM) | 25 (≈ 29.5 µM) | 0.2 (≈ 0.236 µM) | 0.2 (≈ 0.236 µM) | 0.2 (≈ 0.236 µM) | 0.2 (≈ 0.236 µM) | 0.39 (≈ 0.46 µM) | 0.2 (≈ 0.236 µM) | 0.25 (≈ 0.295 µM) | 0.25 (≈ 0.295 µM) | MIC [17]: 0.03 µg/mL (≈ 0.0354 µM); MIC [18]: 0.03 µg/mL (≈ 0.0354 µM); MIC [19]: 0.01 µg/mL (≈ 0.0118 µM); MIC [20]: 0.01 µg/mL (≈ 0.0118 µM); MIC [21]: 0.39 µg/mL (≈ 0.46 µM); MIC [22]: 0.02 µg/mL (≈ 0.0236 µM); MIC [23]: 0.2 µg/mL (≈ 0.236 µM)
